Laboratory results taken from PubChem BioAssay (NCI).
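1) Cells in 96-well plates. 2) Compound, 48 h, 5 concentrations. 3) Linear interpolation between surrounding doses. 4) Unreached endpoint = highest concentration. GI50 = concentration required for 50% inhibition of growth. TGI is the concentration that stops growth completely.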

Assays:
Experiment in all cases: NCI-60 cell line screen, 48 h
ACHN renal = test system: ACHN renal
CAKI-1 renal = test system: CAKI-1 renal
DU-145 prostate = test system: DU-145 prostate
EKVX NSCLC = test system: EKVX NSCLC
HCT-116 colon = test system: HCT-116 colon
HOP-62 NSCLC = test system: HOP-62 NSCLC
OVCAR-4 ovarian = test system: OVCAR-4 ovarian
OVCAR-8 ovarian = test system: OVCAR-8 ovarian
SK-MEL-28 melanoma = test system: SK-MEL-28 melanoma
SW-620 colon = test system: SW-620 colon

Row | Compound | GI50 (ACHN renal) | TGI (ACHN renal) | GI50 (CAKI-1 renal) | TGI (CAKI-1 renal) | GI50 (DU-145 prostate) | TGI (DU-145 prostate) | GI50 (EKVX NSCLC) | TGI (EKVX NSCLC) | GI50 (HCT-116 colon) | TGI (HCT-116 colon) | GI50 (HOP-62 NSCLC) | TGI (HOP-62 NSCLC) | GI50 (OVCAR-4 ovarian) | TGI (OVCAR-4 ovarian) | GI50 (OVCAR-8 ovarian) | TGI (OVCAR-8 ovarian) | GI50 (SK-MEL-28 melanoma) | TGI (SK-MEL-28 melanoma) | GI50 (SW-620 colon) | TGI (SW-620 colon)
1 | C=C1C(=O)O[C@H]2[C@H]1CC/C(COC(=O)NCc1c[nH]c3ccc(F)cc13)=C\CC[C@@]1(C)O[C@@H]21 | 1.36 µM | 2.67 µM | 1.53 µM | 3.18 µM | 1.08 µM | 2.48 µM | 1.89 µM | 4.51 µM | 0.703 µM | 2.04 µM | 2 µM | 4.56 µM | 1.52 µM | 3.59 µM | 1.68 µM | 3.91 µM | 1.63 µM | 3.24 µM | 0.619 µM | 2.65 µM
2 | CN(C)CCCn1c2c(c3cc4c(cc3c1=O)OCO4)C(=O)c1ccccc1-2 | < 0.0213 µM | 0.234 µM | 3.01 µM | 9.4 µM | 3.08 µM | > 27.5 µM | 5.55 µM | 34.9 µM |  | 0.384 µM | < 0.0318 µM | 1.43 µM | 0.715 µM | > 23.3 µM | 0.0576 µM | 0.922 µM | 4.68 µM | > 100 µM | 0.85 µM | > 39.9 µM
3 | COCCOCCOCCOCCOC(=O)OC[n+]1ccc(NC(=NCCCCCCOc2ccc(Cl)cc2)NC#N)cc1 | 10.8 µM | 23.4 µM | 3.3 µM | 20.5 µM | 0.0616 µM | 18.2 µM | 3.93 µM | 14.9 µM | < 0.01 µM | 11.8 µM | 9.58 µM | 24.1 µM | 6.47 µM | 19.9 µM | < 0.01 µM | 20.8 µM | 11.1 µM | 23.5 µM | < 0.01 µM | 16.3 µM
4 | COc1ccc2c(c1)C(=O)c1c-2c(=O)n(CCCN(C)C)c2cc(OC)c(OC)cc12 | 2.76 µM | 14.4 µM | 1.48 µM | > 100 µM | 0.623 µM | 10.9 µM | 16.5 µM | 30.7 µM | 4.53 µM | 21.4 µM | 0.682 µM | > 100 µM | 12.6 µM | 25.3 µM | 4.6 µM | 23 µM | 17.9 µM | 32 µM | 1.71 µM | 20.8 µM
